# Reference: patent US12257251B2, “Use of FAK inhibitor in preparation of drug for treating tumors having NRAS mutation” (INXMED (NANJING) CO., LTD., priority 2019, dated 2025)
# pIC50: −log10 of the molar value. Like-named read-outs stand apart in the source and are kept apart here.
# How the values were obtained:
# [1] = system: Ba/F3-NRAS^G12D cell line; experiment: Antiproliferative test (CellTiter Glo, 48 hours) in NRAS^G12D-transfected Ba/F3 cells; assay type: cell-based, murine; settings: for pIC50: Mus musculus
# Description: The Ba/F3 cell line was obtained from ATCC in 2009, and cultured according to a method described in Zhang X Ren R. Bcr-abl efficiently induces a myeloproliferative disease and production of excess interleukin-3 and granulocyte-macrophage colony-stimulating factor in mice: A novel model for chronic myelogenous leukemia. Blood., 1998, 92: 3829-40. Growth factor-dependent BA/F3 cells were cultured in RPMI 1640 including 10% FBS and supplemented with 15% WEHI-3 conditioned medium or recombinant IL-3 (Roche) as a source of IL-3 at a final concentration of 1 ng/ml. […] Cancer Res., 2007, 67: 7139-46 and Fredericks J, Ren R. The role of RAS effectors in BCRIABL induced chronic myelogenous leukemia. Front Med China., 2013, 7: 452-61. Upon receipt of the original stock, cells were expanded and frozen at a low passage rate (<3). Frozen cells were thawed and used in this study, with cell passages limited to 15 for all experimental procedures. All cells were tested regularly to ensure freedom and maintenance in a normal state of mycoplasma.
# NRAS^G12D-transfected Ba/F3 (Ba/F3-N) or KRAS^G12D-transfected Ba/F3 ([…]) cells were seeded into 96-well cell culture cluster plate in 100 μL of medium at a density of 5,000 cells per well. BI853520 was diluted 3-fold with RPMI 1640 at 9 points, and added according to the volume of each well, starting at 10 μmol/L to reach a 3-fold concentration gradient (final solvent concentration <1/1000). PD0325901 was used as a positive control. After 48 hours of incubation, cell viability was measured using CellTiter Glo (Promega). Luminescence was detected using an Envision plate reader (PerkinElmer). The calculation method of Z factor was as described in Zhang J H, Chung T D Y, Oldenburg K R. A simple statistical parameter for use in evaluation and validation of high throughput screening assays. J Biomol Screen., 1999, 4: 67-73, and the following analysis only used data with Z factor >0.6. […]
# [2] = Body weight change (tolerability) in the KYSE-270 xenograft study; assay type: in vivo, mouse; settings: for Change in median weight: BI853520 50 mg/Kg qd, day 13 versus day 1
# Description: 1.7. Monitoring tumor growth and side effects: Tumor diameters were measured with calipers three times a week. The volume [mm^3] of each tumor was calculated according to the equation “tumor volume=length×diameter^2×π/6”. To monitor the side effects of the treatment, the mice were checked daily for abnormalities and their body weights were measured three times a week. For ethical reasons, animals with tumors larger than 1.5 cm in diameter, ulcerated tumors, or 20% body weight loss were euthanized.
# The wilcoxon test was used for comparison. For body weight, the percent change relative to initial body weight on day 1 was used as the target variable for statistical analysis. The number of animals, and the median, minimum and maximum weight changes in each group were calculated.
# One-sided test to compare all treatment groups with control group was performed for observing: • reduction in tumor volume (inhibition of tumor growth, efficacy parameter) and • reduction in weight changes (weight loss, tolerance parameters).
# Within each subtopic, p-values for the efficacy parameter were compared and adjusted for multiple times according to Bonferroni-Holm. The p-value for the tolerance parameter was kept constant so as not to overlook possible side effects. Significance level was fixed at α=5%. A p-value (adjusted) of less than 0.05 was considered to show a statistically significant difference between groups, and 0.05≤p-value<0.10 was considered as an indicative difference. Statistical evaluations were performed using the SAS software package version 9.4 (SAS Institute Inc., Cary NC, USA).
# [3] = Body weight change (tolerability) in the HT-1080 mouse study; assay type: in vivo; settings: 12.5 mg/kg qd, end of the assay (day 13) versus day 1
# Description: • 1. Materials and Method: • 1.1. Design of Research • Treatment began when the median tumor volume was between 70-130 mm^3. • 10 mice in the control group, and 7 mice in the treatment group. • Oral gavage once daily. • Control: 0.5% hydroxyethyl cellulose • BI 853520: 50 mg/kg, 25 mg/kg, 12.5 mg/kg, 6 mg/kg, • Tumor volume was measured 3 times a week and body weight was monitored daily. • Evaluation of treatment outcome was based on absolute volume of individual tumors. • Tolerability was assessed based on changes in body weight.
# Tumor diameters were measured with calipers three times a week (Monday, Wednesday, and Friday). The volume of each tumor [in mm^3] was calculated according to the equation, “tumor volume=length×diameter^2×π/6”. To monitor the side effects of the treatment, the mice were checked daily for abnormalities and their body weights were measured daily. Animals were sacrificed at the end of the study (approximately two weeks after the start of treatment). During the study, animals with tumor necrosis or tumors larger than 2000 mm^3 were sacrificed ahead of schedule for ethical reasons.
# At the end of the assay on day 13, statistical evaluation of tumor volume and body weight parameters was performed. […] A nonparametric approach was used, and the number of observations, median, minimum and maximum values were calculated. […]
structure (smiles),measurement,setting,value
COc1cc(C(=O)NC2CCN(C)CC2)c(F)cc1Nc1ncc(C(F)(F)F)c(Oc2cccc3c2C(=O)N(C)C3)n1 [BI853520],Increase of IC50 after addition of IL-3,[1]; + IL-3 versus − IL-3,more than 4 fold
same,pIC50,"[1]; BaF3, after addition of IL-3, 48 hours, read-out: IC50 (antiproliferative effect), + IL-3",4.82
same,pIC50,"[1]; BaF3, without IL-3, 48 hours, read-out: IC50 (antiproliferative effect), − IL-3",5.47
same,Change in median weight,[2]; 50 mg/kg,+2.8%
same,Change in median weight,"[2]; listed as BI 853520, 50 mg/kg",2.8%
same,Tolerability (in words),[2]; BI 853520 50 mg/kg,well tolerated
same,Median weight change,[3],5.7%
